Results as given in patent US12649751B2 (Arcus Biosciences, Inc., priority 2022, dated 2026).
Read-outs that look alike come from different tables or passages of the source.

Columns and labels:
[1] = system: p-SLP-76 (Ser376) in Jurkat cells; assay: pSLP76 Cellular Assay (AlphaLISA SureFire Ultra p-SLP-76 (Ser376), anti-CD3 activated Jurkat cells); assay type: cell-based; settings: read-out: Cellular Potency
In short: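 Read-out is AlphaLISA p-SLP-76 (Ser376) signal at 570 nm in Jurkat lysates, with IC50 fitted by 4-parameter logistic. Cells were starved overnight, exposed 1 h at 37 °C to 22 twofold compound dilutions in HBSS, then activated 45 min with anti-CD3 (0.025 mg/ml stock added).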

HPK1 = HPK1 (Homo sapiens, UniProt Q92918); assay: HPK1 Biochemical Assay (ADP-Glo luminescence; low ATP 10 μM or high ATP 200 μM)
Chain of HPK1 (Q92918 whole entry, species assumed): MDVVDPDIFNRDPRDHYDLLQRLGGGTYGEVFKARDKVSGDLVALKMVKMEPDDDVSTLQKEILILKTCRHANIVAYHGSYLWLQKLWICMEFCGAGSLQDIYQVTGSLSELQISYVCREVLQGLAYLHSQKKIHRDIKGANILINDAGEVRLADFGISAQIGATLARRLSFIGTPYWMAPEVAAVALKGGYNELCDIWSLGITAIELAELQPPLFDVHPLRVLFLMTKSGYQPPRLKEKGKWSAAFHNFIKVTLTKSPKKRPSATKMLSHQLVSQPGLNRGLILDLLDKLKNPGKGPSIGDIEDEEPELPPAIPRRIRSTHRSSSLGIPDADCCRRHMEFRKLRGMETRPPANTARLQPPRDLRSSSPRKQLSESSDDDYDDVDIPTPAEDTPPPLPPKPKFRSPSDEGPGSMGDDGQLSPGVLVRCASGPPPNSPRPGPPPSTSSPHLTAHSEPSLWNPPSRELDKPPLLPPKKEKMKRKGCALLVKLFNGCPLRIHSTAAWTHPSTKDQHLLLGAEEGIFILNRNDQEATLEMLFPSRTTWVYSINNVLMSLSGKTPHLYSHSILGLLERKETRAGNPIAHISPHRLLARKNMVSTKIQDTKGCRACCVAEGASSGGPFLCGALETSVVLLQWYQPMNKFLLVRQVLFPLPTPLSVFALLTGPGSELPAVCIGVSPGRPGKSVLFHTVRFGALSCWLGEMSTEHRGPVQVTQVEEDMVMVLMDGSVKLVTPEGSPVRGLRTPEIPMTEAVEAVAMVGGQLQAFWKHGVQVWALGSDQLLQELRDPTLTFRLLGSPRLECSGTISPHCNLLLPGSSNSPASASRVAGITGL

[2] = HPK1 ADP-Glo assay, high ATP (200 μM ATP, 5 nM HPK1), read-out: Biochemical Potency (high ATP)
[3] = Homo sapiens, pSLP76 (Ser376) AlphaLISA, anti-CD3 activated Jurkat cells
[4] = Homo sapiens, Jurkat cells, anti-CD3 stimulation, pSLP76
[5] = 2 nM HPK1, 10 μM ATP, read-out: Biochemical Potency (low ATP)
[6] = HPK1 ADP-Glo assay, low ATP (10 μM ATP, 2 nM HPK1), read-out: Biochemical Potency (low ATP)

Compound	IC50 (HPK1; [2])	IC50 [1, 3]	also measured
Cc1cc(Nc2cc3nc(-c4cccc(C(=O)N(C)[C@H]5CCCOC5)c4)sc3cn2)nc(N2C[C@@H]3C[C@H]2CN3CCO)n1 [Example 543]	< 100 nM	–	IC50 ([1]; pSLP76 (Ser376) AlphaLISA, anti-CD3 activated Jurkat cells): < 100 nM
Cc1cc(Nc2cc3nc(-c4ncc(C)o4)sc3cn2)nc(N2C[C@@H]3C[C@H]2CN3C)n1 [Example 373]	< 100 nM	100 to 1000 nM	–
CCN1C[C@@H]2C[C@H]1CN2c1nc(C)cc(Nc2cc3nc(-c4cccc(C(=O)N(C)C5CCN(S(C)(=O)=O)CC5)c4)sc3cn2)n1 [Example 311, N-(1-mesyl-4-piperidyl)-N-methylm-[6-(2-{(1S,4S)-5-ethyl-2,5-diazabicyclo[2.2.1]hept-2-yl}-6-methyl-4-pyrimidinylamino)-3-thia-1,5-diaza-2-indenyl]benzamide]	< 100 nM	100 to 1000 nM	–
CCN1C[C@@H]2C[C@H]1CN2c1nc(C)cc(Nc2cc3nc(-c4ccnc(C(=O)NC5CCCC5)c4)sc3cn2)n1 [Example 514]	< 100 nM	100 to 1000 nM	–
CN(C)Cc1nc(Nc2cc3nc(-c4c(F)cccc4C(F)(F)F)sc3cn2)ccc1N1CCOCC1 [Example 15, 6-[(Dimethylamino)methyl]-N-{2-[2-fluoro-6-(trifluoromethyl)phenyl]-[1,3]thiazolo[5,4-c]pyridin-6-yl}-5-(morpholin-4-yl)pyridin-2-amine]	–	–	IC50 [1, 4]: 100 to 1000 nM; IC50 (HPK1; [5]): < 100 nM
Cc1cccnc1-c1nc2cc(Nc3cc(C4CCC(O)CC4)nc(N4C[C@@H]5C[C@H]4CN5C)n3)ncc2s1 (stereo partly drawn) [Example 507]	< 100 nM	100 to 1000 nM	–
CN1C[C@@H]2C[C@H]1CN2c1cncc(Nc2cc3nc(-c4cccc(S(=O)(=O)N(C)C)c4)sc3cn2)n1 [Example 288, N,N-dimethyl-3-[6-({6-[(1S,4S)-5-methyl-2,5-diazabicyclo[2.2.1]heptan-2-yl]pyrazin-2-yl}amino)-[1,3]thiazolo[5,4-c]pyridin-2-yl]benzene-1-sulfonamide]	–	–	IC50 [1, 4]: 1000 to 5000 nM; IC50 (HPK1; [5]): 100 to 1000 nM
CCN1C[C@@H]2C[C@H]1CN2c1nc(C)cc(Nc2cc3nc(-c4cccc(C(=O)NC5CCCC5)c4)sc3cn2)n1 [Example 515]	< 100 nM	< 100 nM	–
Cc1cccnc1-c1nc2cc(Nc3cccc(N4CCN5CCC[C@@H]5C4)n3)ncc2s1 [Example 114, 6-[(8aR)—Octahydropyrrolo[1,2-a]pyrazin-2-yl]-N-[2-(3-methylpyridin-2-yl)-[1,3]thiazolo[5,4-c]pyridin-6-yl]pyridin-2-amine]	–	–	IC50 [1, 4]: > 5000 nM; IC50 (HPK1; [5]): < 100 nM
c1cc(-c2nc3cc(Nc4ccc(C5CCOCC5)c(CN5CCCC5)n4)ncc3s2)ccn1 [Example 216, 5-(Oxan-4-yl)-N-[2-(pyridin-4-yl)-[1,3]thiazolo[5,4-c]pyridin-6-yl]-6-[(pyrrolidin-1-yl)methyl]pyridin-2-amine]	–	–	IC50 [1, 4]: < 100 nM; IC50 (HPK1; [5]): < 100 nM
CNC(=O)c1cccc(-c2nc3cc(Nc4cc(C)nc(N5C[C@@H]6C[C@H]5CN6CCO)n4)ncc3s2)c1 [Example 549]	< 100 nM	100 to 1000 nM	–
CCc1cc(C(=O)N(C)C)cc(-c2nc3cc(Nc4cc(C)nc(N5C[C@@H]6C[C@H]5CN6CC)n4)ncc3s2)c1 [Example 518]	< 100 nM	< 100 nM	–
Cc1cccnc1-c1nc2cc(Nc3ccc(N4CCC(F)(F)C4)c(CN4CCCC4)n3)ncc2s1 [Example 9, 5-(3,3-Difluoropyrrolidin-1-yl)-N-[2-(3-methylpyridin-2-yl)-[1,3]thiazolo[5,4-c]pyridin-6-yl]-6-[(pyrrolidin-1-yl)methyl]pyridin-2-amine]	–	–	IC50 [1, 4]: 100 to 1000 nM; IC50 (HPK1; [5]): < 100 nM
CCN1C[C@@H]2C[C@H]1CN2c1nc(C)cc(Nc2cc3nc(-c4cccc(C(=O)N5CC[C@@H](C)C5)c4)sc3cn2)n1 [Example 305, [(R)-3-methyl-1-pyrrolidinyl]{m-[6-(2-{(1S,4S)-5-ethyl-2,5-diazabicyclo[2.2.1]hept-2-yl}-6-methyl-4-pyrimidinylamino)-3-thia-1,5-diaza-2-indenyl]phenyl}methanone]	< 100 nM	< 100 nM	–
Cc1cc(Nc2cc3nc(-c4cccc(C(=O)N[C@@H]5CCCOC5)c4)sc3cn2)nc(N2C[C@@H]3C[C@H]2CN3CCO)n1 [Example 540]	< 100 nM	< 100 nM	–
CCN(CC)C(=O)c1cccc(-c2nc3cc(Nc4cc(C)nc(N5C[C@@H]6C[C@H]5CN6CC)n4)ncc3s2)c1 [Example 342]	< 100 nM	100 to 1000 nM	–
CCN1C[C@@H]2C[C@H]1CN2c1nc(C)cc(Nc2cc3nc(-c4cccc(C(=O)Nc5ccccc5)c4)sc3cn2)n1 [Example 522]	< 100 nM	100 to 1000 nM	–
CN1CCc2ccc(Nc3cc4nc(-c5c(F)cccc5F)sc4cn3)cc2CC1 [Example 328]	–	5000 to 25000 nM	IC50 (HPK1; [6]): 100 to 1000 nM
CC(=O)N1CCC(n2cc(-c3nc4cc(Nc5cc(C)nc(N6C[C@@H]7C[C@H]6CN7C)n5)ncc4s3)cn2)CC1 [Example 571]	100 to 1000 nM	1000 to 5000 nM	–
Cc1cc(Nc2cc3nc(-c4ccnc(N5CC6CCC(C5)O6)c4)sc3cn2)nc(N2C[C@@H]3C[C@H]2CN3CCO)n1 [Example 448]	< 100 nM	100 to 1000 nM	–
CCN1C[C@@H]2C[C@H]1CN2c1nc(C)cc(Nc2cc3nc(N[C@H](C)c4ccccc4)sc3cn2)n1 [Example 425]	< 100 nM	1000 to 5000 nM	–
CC(C)(O)c1cccc(-c2nc3cc(Nc4cnc(C5CCOCC5)c(N5C[C@@H]6C[C@H]5CN6)n4)ncc3s2)c1 [Example 509]	< 100 nM	< 100 nM	IC50 (HPK1; [6]): < 100 nM
CCN1C[C@@H]2C[C@H]1CN2c1nc(C)cc(Nc2cc3nc(-c4cccc(C(=O)N(C)C5CCN(C(C)=O)CC5)c4)sc3cn2)n1 [Example 568]	100 to 1000 nM	1000 to 5000 nM	–
CCN1C[C@@H]2C[C@H]1CN2c1nc(C)cc(Nc2cc3nc(-c4cccc(C(=O)N5C[C@@H]6OCCO[C@@H]6C5)c4)sc3cn2)n1 [Example 529]	< 100 nM	< 100 nM	–
Cc1cc(Nc2cc3nc(-c4cnn(C5CCN(S(C)(=O)=O)CC5)c4)sc3cn2)nc(N2C[C@@H]3C[C@H]2CN3C)n1 [Example 572]	< 100 nM	1000 to 5000 nM	–
Cc1cccnc1-c1nc2cc(Nc3ccc(C4CCOC4)c(CN4CCCC4)n3)ncc2s1 (racemic) [Example 252, N-[2-(3-Methylpyridin-2-yl)-[1,3]thiazolo[5,4-c]pyridin-6-yl]-5-(oxolan-3-yl)-6-[(pyrrolidin-1-yl)methyl]pyridin-2-amine]	–	–	IC50 [1, 4]: 100 to 1000 nM; IC50 (HPK1; [5]): < 100 nM
CCN1C[C@@H]2C[C@H]1CN2c1nc(C)cc(Nc2cc3nc(-c4cc(Cl)cc(C(=O)N(C)C)c4)sc3cn2)n1 [Example 519]	< 100 nM	100 to 1000 nM	–
CCN1C[C@@H]2C[C@H]1CN2c1nc(C)cc(Nc2cc3nc(-c4cccc(CN5CCOC5=O)c4)sc3cn2)n1 [Example 310, (2-{(1S,4S)-5-ethyl-2,5-diazabicyclo[2.2.1]hept-2-yl}-6-methyl-4-pyrimidinyl)(2-{m-[(2-oxo-1,3-oxazolidin-3-yl)methyl]phenyl}-3-thia-1,5-diaza-6-indenyl)amine]	< 100 nM	100 to 1000 nM	–
